Assay results from BindingDB's records for patent US20250129067 (Progentos Therapeutics, 2025).

Each compound was assayed against Platelet-derived growth factor receptor alpha (Homo sapiens, UniProt P16234) (assay: PDGFRα Kinase Assay).
Protocol: The PDGFRα enzyme assays were conducted per the manufacturer's directions (Promega PDGFRα Kinase Enzyme System and ADP Glo Assay Cat #V8011). […] 20 ng of purified PDGFRα protein was added to the test article. […] ADP-Glo was added to halt the kinase reaction and deplete the remaining ATP. Kinase detection reagent, containing luciferase and luciferin, was used to convert the ADP signal into luminescence. Luminescence was measured using a Molecular Devices Spectramax ID5 and compared to a standard curve to determine kinase activity. IC50s were calculated using Prism 9, Graphpad software.

Chain of Platelet-derived growth factor receptor alpha (P16234 whole entry): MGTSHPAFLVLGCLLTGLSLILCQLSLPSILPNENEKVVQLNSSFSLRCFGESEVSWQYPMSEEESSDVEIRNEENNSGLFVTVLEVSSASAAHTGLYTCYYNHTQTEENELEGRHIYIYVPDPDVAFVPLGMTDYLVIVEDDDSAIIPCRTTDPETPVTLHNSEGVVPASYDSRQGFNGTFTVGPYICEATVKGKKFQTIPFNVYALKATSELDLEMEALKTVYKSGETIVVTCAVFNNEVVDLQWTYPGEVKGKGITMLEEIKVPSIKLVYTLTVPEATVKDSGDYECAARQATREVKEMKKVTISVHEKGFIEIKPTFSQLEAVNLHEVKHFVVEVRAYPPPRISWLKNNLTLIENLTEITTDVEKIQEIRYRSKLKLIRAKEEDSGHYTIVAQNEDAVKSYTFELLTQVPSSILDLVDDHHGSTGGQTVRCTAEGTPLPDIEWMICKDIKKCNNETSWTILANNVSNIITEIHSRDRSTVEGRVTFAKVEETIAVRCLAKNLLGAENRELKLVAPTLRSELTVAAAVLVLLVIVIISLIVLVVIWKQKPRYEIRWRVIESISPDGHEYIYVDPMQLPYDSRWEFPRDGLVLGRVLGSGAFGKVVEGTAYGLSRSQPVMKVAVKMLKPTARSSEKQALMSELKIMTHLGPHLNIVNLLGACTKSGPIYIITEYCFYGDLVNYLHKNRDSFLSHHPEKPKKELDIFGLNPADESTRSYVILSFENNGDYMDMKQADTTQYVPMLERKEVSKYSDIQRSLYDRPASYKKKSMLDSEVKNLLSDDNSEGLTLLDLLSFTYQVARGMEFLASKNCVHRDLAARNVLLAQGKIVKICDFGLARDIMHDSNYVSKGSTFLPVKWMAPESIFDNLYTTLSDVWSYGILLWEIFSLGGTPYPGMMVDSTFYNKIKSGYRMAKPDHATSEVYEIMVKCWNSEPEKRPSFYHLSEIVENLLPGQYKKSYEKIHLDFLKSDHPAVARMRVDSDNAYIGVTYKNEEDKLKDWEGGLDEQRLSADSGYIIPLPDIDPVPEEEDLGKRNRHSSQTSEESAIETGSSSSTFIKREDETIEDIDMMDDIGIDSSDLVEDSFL

Q: With Cn1cc(-c2ccn3c(N4CCN(C(=O)OC(C)(C)C)CC4)cnc3n2)cn1 [US20250129067, Compound 87] as the compound, how does the IC50 read?
A: 5.94 µM

Q: With Cn1cc(-c2ccc3c(N4CCN(c5ncc(C(O)Cc6ccccc6)cn5)CC4)cnn3c2)cn1 (stereo not drawn) [US20250129067, Compound 167] as the compound, how does the IC50 read?
A: 0.107 µM

Q: Which IC50 does the source give for CN(CCCN(C)c1cnn2cc(-c3cnn(C)c3)ccc12)c1ncc(Cc2ccccc2)cn1 here?
A: > 10 µM
